Read-outs that look alike come from different tables or passages of the source. Marks after values point to notes of the source that are not given here.
Key:
[1] = Phase I DDI study Part 1: tazemetostat plasma PK alone and with itraconazole (noncompartmental analysis); format: in vivo, human
Description: (§1) This was a Phase I, multicenter, open‐label, 2‐part study encompassing a fixed‐sequence design that aimed to characterize the PK of tazemetostat when administered as single and twice‐daily oral doses alone or in combination with either itraconazole (Part 1) or rifampin (Part 2). Secondary objectives were to evaluate the safety profile of tazemetostat when coadministered with either itraconazole (Part 1) or rifampin (Part 2).
Part 1 of the study evaluated the DDI between tazemetostat and itraconazole. On the mornings of Days 1 and 15, patients received a single dose of tazemetostat 400 mg orally. On Days 3‐14, patients received tazemetostat 400 mg twice daily (morning and evening). On Days 18‐20, patients received itraconazole 200 mg orally once daily in the morning. On Days 21‐35, tazemetostat 400 mg twice daily was coadministered in the morning with a single dose of itraconazole 200 mg. On Day 36, patients received a single dose of tazemetostat 400 mg coadministered in the morning with a single dose of itraconazole 200 mg. On Days 37 and 38, patients received a single dose of itraconazole 200 mg (Figure 1A). Throughout Part 1, administration of itraconazole occurred 1 hour after a meal.
In Part 1, plasma concentrations of tazemetostat following tazemetostat dosing on Days 1, 15, 21, and 36 were quantified for PK analyses before dosing (0 hour), and at 0.5, 1, 1.5, 2, 4, 6, 8, 12, 24 (Days 21‐22), 36, 48 (Days 1‐3), and up to 72 hours after dosing (Days 15‐18 and Days 36‐39).
(§2) Plasma concentrations of tazemetostat, over the ranges of 1.00‐2000 ng/mL, were quantified by a fully validated liquid chromatography with tandem mass spectrometric detection analytical method. Samples that had no detectable peak or had the calculated concentration <1.00 ng/mL were reported as below the lower limit of quantification. Tazemetostat analysis consisted of protein precipitation extraction and separation using mobile phases of 100 mM ammonium formate/water (1:9 v/v) (mobile phase A) and 100 mM ammonium formate/acetonitrile (1:9 v/v) (mobile phase B). Detection was achieved using an API‐5500 mass spectrometer (AB Sciex) using electrospray ionization (positive‐ion mode) in the multiple reaction monitoring mode. The multiple reaction monitoring mode m/z transitions monitored were […] for tazemetostat and the dwell time was set at 300 milliseconds.
(§3) Plasma concentration‐time data for tazemetostat were analyzed by noncompartmental analysis using the validated software program Phoenix WinNonlin Professional Version 8.3 (Certara Inc., Mountain View, CA).

[2] = Phase I DDI study Part 2: tazemetostat plasma PK alone and with rifampin (noncompartmental analysis); format: in vivo, human; settings: for AUC0‐12h ratio, geoLSM (90% CI) / Cmax ratio, geoLSM (90% CI): steady state with rifampin vs alone, Day 24 versus Day 15; for RacAUC (AUC0‐12h accumulation ratio), geoLSM (90% CI) / RacCmax (Cmax accumulation ratio), geoLSM (90% CI): tazemetostat 800 mg alone, Day 15 versus Day 1; for Tmax / AUC / AUC(0-t) / Cmax / half-life: human; for Tmax: read-out: tmax, median (range)
Description: as §1
Part 2 of the study evaluated the DDI between tazemetostat and rifampin. On the mornings of Days 1 and 15, patients received a single dose of tazemetostat 800 mg orally. On Days 3‐14, patients received tazemetostat 800 mg twice daily. On Days 17‐23, patients received tazemetostat 800 mg twice daily, coadministered in the morning with a single dose of rifampin 600 mg orally. On the morning of Day 24, patients received a single dose of tazemetostat 800 mg coadministered with rifampin 600 mg. On the morning of Day 25, patients received rifampin 600 mg (Figure 1B). Throughout Part 2, administration of rifampin occurred 1 hour before a meal.
In Part 2, plasma concentrations of tazemetostat following tazemetostat dosing on Days 1, 15, and 24 were quantified for PK analyses before dosing (0 hour) and at 0.5, 1, 1.5, 2, 4, 6, 8, 12, 24, 36, and 48 hours.
as §2, §3

[3] = single doses, Day 21/Day 1, compared with tazemetostat alone
[4] = twice‐daily dosing, steady state, Day 36/Day 15
[5] = Part 2, tazemetostat 800 mg twice daily alone, multiple dosing, Day 15, plasma

Work on `CCN(c1cc(-c2ccc(CN3CCOCC3)cc2)cc(C(=O)NCc2c(C)cc(C)[nH]c2=O)c1C)C1CCOCC1` [Tazemetostat] yielded a Cmax ([1]; human, plasma, po, 400 mg, Part 1, tazemetostat 400 mg oral single dose alone, Day 1, plasma, read-out: Cmax, mean (SD)) of 803 ng/mL, a half-life ([1]; human, plasma, po, 400 mg, Part 1, tazemetostat 400 mg oral single dose alone, Day 1, plasma, read-out: t1/2, GeoMean (CV%) (converted)) of 5.97 h and a half-life ([1]; human, plasma, po, 400 mg, Part 1, tazemetostat 400 mg oral single dose alone, Day 1, plasma, read-out: t1/2, mean (SD) (converted)) of 6.13 h. For the same molecule, the Tmax ([1]; human, plasma, po, 400 mg, Part 1, tazemetostat 400 mg oral single dose alone, Day 1, plasma, read-out: tmax, median (range)) was 1.44 h, the “increase of tazemetostat exposure by itraconazole” value ([1]; overall, single dose and steady state) was “two to three times” and the “increase of mean AUC0‐12h by itraconazole” value [1, 3] was 3.12 fold. For the same molecule, the “increase of mean Cmax by itraconazole” value [1, 3] was 2.00 fold, the “increase of mean steady‐state AUC0‐12h by itraconazole” value [1, 4] was 2.47 fold and the “increase of mean steady‐state Cmax by itraconazole” value [1, 4] was 1.86 fold. The “AUC0‐12h ratio, geoLSM (90% CI)” value ([2]; Part 2) was 0.163 (0.128‐0.208) ^d, the “Cmax ratio, geoLSM (90% CI)” value ([2]; Part 2) was 0.164 (0.122‐0.219) ^d and the “AUC0‐12h ratio, geoLSM (90% CI)” value ([2]; Part 2, listed as tazemetostat) was 0.163. The “Cmax ratio, geoLSM (90% CI)” value ([2]; Part 2, listed as tazemetostat) was 0.164, the “RacAUC (AUC0‐12h accumulation ratio), geoLSM (90% CI)” value ([2]; Part 2) was 0.816 (0.638‐1.04) ^e and the “RacCmax (Cmax accumulation ratio), geoLSM (90% CI)” value ([2]; Part 2) was 0.828 (0.635‐1.08) ^e. For the same molecule, the “RacAUC (AUC0‐12h accumulation ratio), geoLSM (90% CI)” value ([2]; Part 2, listed as tazemetostat) was 0.816, the “RacCmax (Cmax accumulation ratio), geoLSM (90% CI)” value ([2]; Part 2, listed as tazemetostat) was 0.828 and the “t1/2, GeoMean (CV%)” value [2, 5] was 7.55 (20.3) hour. For the same molecule, the “tmax, median (range)” value [2, 5] was 1.00 (0.63‐4.00) hour, the Tmax ([2]; oral, Part 2, tazemetostat 800 mg multiple dosing with rifampin 600 mg once daily, Day 24, plasma) was 1.01 h and the AUC ([2]; plasma, oral, 800 mg, Part 2, tazemetostat 800 mg twice daily alone, multiple dosing, Day 15, plasma, read-out: AUC0‐12 h, GeoMean (CV%)) was 3610 ng·h/mL. The AUC ([2]; plasma, oral, 800 mg, Part 2, tazemetostat 800 mg twice daily alone, multiple dosing, Day 15, plasma, read-out: AUC0‐12 h, mean (SD)) was 4330 ng·h/mL, the AUC(0-t) ([2]; plasma, oral, 800 mg, Part 2, tazemetostat 800 mg twice daily alone, multiple dosing, Day 15, plasma, read-out: AUClast, GeoMean (CV%)) was 4270 ng·h/mL and the AUC(0-t) ([2]; plasma, oral, 800 mg, Part 2, tazemetostat 800 mg twice daily alone, multiple dosing, Day 15, plasma, read-out: AUClast, mean (SD)) was 5220 ng·h/mL. For the same molecule, the Cmax ([2]; plasma, oral, 800 mg, Part 2, tazemetostat 800 mg twice daily alone, multiple dosing, Day 15, plasma, read-out: Cmax, GeoMean (CV%)) was 1100 ng/mL, the Cmax ([2]; plasma, oral, 800 mg, Part 2, tazemetostat 800 mg twice daily alone, multiple dosing, Day 15, plasma, read-out: Cmax, mean (SD)) was 1380 ng/mL and the half-life ([2]; plasma, oral, 800 mg, Part 2, tazemetostat 800 mg twice daily alone, multiple dosing, Day 15, plasma, read-out: t1/2, mean (SD) (converted)) was 7.7 h. The AUC ([2]; plasma, oral, Part 2, tazemetostat 800 mg multiple dosing with rifampin 600 mg once daily, Day 24, plasma, read-out: AUC0‐12 h, GeoMean (CV%)) was 588 ng·h/mL, the AUC ([2]; plasma, oral, Part 2, tazemetostat 800 mg multiple dosing with rifampin 600 mg once daily, Day 24, plasma, read-out: AUC0‐12 h, mean (SD)) was 770 ng·h/mL and the AUC(0-t) ([2]; plasma, oral, Part 2, tazemetostat 800 mg multiple dosing with rifampin 600 mg once daily, Day 24, plasma, read-out: AUClast, GeoMean (CV%)) was 676 ng·h/mL. It also gave an AUC(0-t) ([2]; plasma, oral, Part 2, tazemetostat 800 mg multiple dosing with rifampin 600 mg once daily, Day 24, plasma, read-out: AUClast, mean (SD)) of 934 ng·h/mL, a Cmax ([2]; plasma, oral, Part 2, tazemetostat 800 mg multiple dosing with rifampin 600 mg once daily, Day 24, plasma, read-out: Cmax, GeoMean (CV%)) of 181 ng/mL and a Cmax ([2]; plasma, oral, Part 2, tazemetostat 800 mg multiple dosing with rifampin 600 mg once daily, Day 24, plasma, read-out: Cmax, mean (SD)) of 233 ng/mL. The half-life ([2]; plasma, oral, Part 2, tazemetostat 800 mg multiple dosing with rifampin 600 mg once daily, Day 24, plasma, read-out: t1/2, GeoMean (CV%) (converted)) was 4.86 h, the half-life ([2]; plasma, oral, Part 2, tazemetostat 800 mg multiple dosing with rifampin 600 mg once daily, Day 24, plasma, read-out: t1/2, mean (SD) (converted)) was 5.06 h and the AUC ([2]; plasma, po, 800 mg, Part 2, tazemetostat 800 mg oral single dose alone, Day 1, plasma, read-out: AUC0‐12 h, GeoMean (CV%)) was 4420 ng·h/mL. The AUC ([2]; plasma, po, 800 mg, Part 2, tazemetostat 800 mg oral single dose alone, Day 1, plasma, read-out: AUC0‐12 h, mean (SD)) was 5310 ng·h/mL, the AUC(0-t) ([2]; plasma, po, 800 mg, Part 2, tazemetostat 800 mg oral single dose alone, Day 1, plasma, read-out: AUClast, GeoMean (CV%)) was 5200 ng·h/mL and the AUC(0-t) ([2]; plasma, po, 800 mg, Part 2, tazemetostat 800 mg oral single dose alone, Day 1, plasma, read-out: AUClast, mean (SD)) was 6370 ng·h/mL. For the same molecule, the Cmax ([2]; plasma, po, 800 mg, Part 2, tazemetostat 800 mg oral single dose alone, Day 1, plasma, read-out: Cmax, GeoMean (CV%)) was 1330 ng/mL, the Cmax ([2]; plasma, po, 800 mg, Part 2, tazemetostat 800 mg oral single dose alone, Day 1, plasma, read-out: Cmax, mean (SD)) was 1550 ng/mL and the half-life ([2]; plasma, po, 800 mg, Part 2, tazemetostat 800 mg oral single dose alone, Day 1, plasma, read-out: t1/2, GeoMean (CV%) (converted)) was 6.22 h. The half-life ([2]; plasma, po, 800 mg, Part 2, tazemetostat 800 mg oral single dose alone, Day 1, plasma, read-out: t1/2, mean (SD) (converted)) was 6.49 h, the Tmax ([2]; Part 2, tazemetostat 800 mg oral single dose alone, Day 1, plasma) was 1.04 h and the “decrease of tazemetostat steady‐state exposure (Cmax and AUC0‐12h) by rifampin” value ([2]; steady state, Day 24/Day 15) was “approximately 84%”.
